Data taken from patent US11219222B2, “Topical mosquito control product” (Penta 5 USA, LLC, priority 2016, dated 2022).
Where “and” joins values, the source holds several entries; their conditions need not be identical. Identical values can stand only once.

Columns and labels:
Format in all cases: in vivo
[1] = system: Aedes aegypti mosquitos; test: Arm-in-cage test, protective efficacy; details: for No. probing on treated arm: 30 seconds exposure; for No. probing on treated arm / % PE: per replicate cage; for Total % PE: three cages
Experimental: Additional testing was performed with the lotion formula of example 4 including: bee's wax, soybean oil, edible oil such as sunflower oil, isopropyl alcohol, cinnamon oil, cedar wood oil, citronella oil, turmeric, anise, basil oil, salt, ethyl ester, and water with the following protocols. Aedes aegypti mmosquitoes were obtained from insecticide-susceptible reference strains held at the London School of Hygiene & Tropical Medicine, UK. All mosquitoes are reared and housed under optimal environmental conditions of 25° C. ±2° C. and 80% Relative Humidity with a 12:12 hour photoperiod. Testing was carried out in a testing room maintained at […] and 80% RH with a 12:12 hour photoperiod. For each product, the same person carried out the arm-in-cage testing.
For each product test, three batches of 50 female mosquitoes were placed in cages 30×30×30 cm inside the testing room. Before the start of each test a bare arm with gloved hand was inserted into the cage for 30 seconds to assess the biting readiness of the mosquitoes. Only cages with at least ten mosquitoes landing within 30 seconds were used in subsequent testing. The number of mosquitoes probing the untreated arm was counted at the end of the 30 second test. Following the combined fitness/control test, the product was applied onto the right arm at the WHO standard rate of 1 ml per 600 cm2 ([…] per cm2) for the Mosquito Insect Repellent and DEET, and at a rate of 2 mg per cm′ for the Sunscreen Repellent. The arm was then inserted into the cage for 30 seconds and the number of mosquitoes probing on the arm counted and recorded. The procedure was repeated with a total of three cages. This was repeated for each of the three cages and at hourly intervals until 8 hours post-application or until protection drops below 50%. Each product was tested on a separate test day.
Protective efficacy (PE) was calculated using the following formula: PE=(Mosquitoes probing on control arm—Mosquitoes probing on treated arm)/Mosquitoes probing on control arm×100. The average probing on the control arm during testing was 16, 17 and 21 mosquitoes at the end of the 30 second exposure time, in cages used for testing the Mosquito Insect Repellent Lotion and 8% DEET respectively. The Mosquito Insect Repellent Lotion 100% protection at 0 hours, whereas the 8% DEET provided 100% protection for 1 hour after application (Table 1). The Mosquito Insect Repellent Lotion provided over 50% protection for, 3 hours, whereas 8% DEET provided over 50% protection for 6 hours.

[2] = system: yellow fever mosquitos, Aedes aegypti; test: In vitro K & D module biting bioassay, compositions of examples 1-3 vs DEET
Experimental: The deterrent effect of the above-described compositions of examples 1 -3 was tested in a controlled environment. In vitro laboratory tests were conducted and measured and compared to DEET and nontreated control groups for yellow fever mosquitos, Aedes aegypti. Bioassays were conducted in nine six-chambered Plexiglas K & D modules stocked with female Aedes aegypti mosquitos as shown in FIGS. 1-3. Five female mosquitos were aspirated into each of the six chambers of the nine modules. Repellant treatments were applied at 26.7 microliters with a pipette and spread with a small brush over 12 square centimeter sections of organdy cloth attached to a flat plastic template containing rectangular openings. The treated cloth covered template was fitted between the K & D module and a lower Plexiglas unit. The lower Plexiglas unit contained shallow surface wells filled with a blood substitute (CDTA and ATP) and covered with a moistened collagen membrane. The blood substitute was heated to 38° C. using water pumped through hose lines attached to the lower units and a water bath supplied with a temperature controlled inversion circulator. Mosquitos were exposed to the treated surfaces by opening sliding doors beneath the modules for 90-second biting counts at five post-treatment time intervals from 1 to 6 hours. Fresh, untreated mosquitos are used for each time interval.
The testing protocol including the in vitro environment provides a rigorous testing of the repellency of the composition as the mosquitos are confined with a blood meal.
An unpaired t-test was conducted on the biting counts between lotion as described herein and the control group where there was no treatment applied between the mosquito and the blood well. […] The statistical factors include t=5.8704 where df=16 and a standard error of difference is equal to 0.530. The two-tailed p value is less than 0.0001. The reduction in biting pressure when using the compositions compared to the control group is significant at the 99.99 level of significance.

[3] = system: yellow fever mosquitoes, Aedes aegypti; test: In vitro K&D module biting bioassay, example 5 (No-Bite), No-Burn and 7% DEET; details: 4 hours post-treatment; p>0.05
Experimental: The deterrent effect of the above-described compositions of example 5 (represented as NO-Bite in FIGS. 7-8) was tested in a controlled environment. In vitro laboratory tests were conducted and measured and compared to DEET and nontreated control groups for yellow fever mosquitos, Aedes aegypti. The repellency of the formulations were compared to a DEET standard, and a non-treated control against yellow fever mosquitoes, Aedes aegypti. The examples were performed in a temperature-controlled laboratory following techniques as disclosed in Klun, J. A., M. A. Kramer, A. Zhang, S. Wang, and M. Debboun. 2008. A quantitative in vitro assay for mosquito deterrent activity without human blood cells. J Am. Mosq. Contr. Assoc. 24:508-512. […] Five colony-reared female Aedes aegypti were aspirated into each chamber (FIG. 1). […] The variance in biting count means by treatment and time intervals was statistically analyzed with SAS Proc ANOVA and statistically tested for significant differences with Tukey's Studentized Range test at p<0.05 and charted with 95% Confidence Intervals (C.I.). Average % repellency was calculated with the following formula and charted by treatment and time interval: (Control Avg. Biting Count—Treatment Avg. Biting Count)÷Control Avg. […]

SMILES: CCN(CC)C(=O)c1cccc(C)c1 [8% DEET, DEET]
- No. probing on treated arm ([1]; 0 hours after application): 0
- % PE ([1]; 0 hours after application): 100.00%
- Total % PE ([1]; 0 hours after application): 100.00%
- No. probing on treated arm ([1]; 1 hour after application): 0
- % PE ([1]; 1 hour after application): 100.00%
- Total % PE ([1]; 1 hour after application): 100.00%
- No. probing on treated arm ([1]; 2 hours after application): 1 and 2 and 0
- % PE ([1]; 2 hours after application): 91.67% and 90.91% and 100.00%
- Total % PE ([1]; 2 hours after application): 95.00%
- No. probing on treated arm ([1]; 3 hours after application): 2 and 0
- % PE ([1]; 3 hours after application): 90.00% and 100.00%
- Total % PE ([1]; 3 hours after application): 95.35%
- No. probing on treated arm ([1]; 4 hours after application): 2 and 1 and 0
- % PE ([1]; 4 hours after application): 91.67% and 94.12% and 100.00%
- Total % PE ([1]; 4 hours after application): 95.16%
- No. probing on treated arm ([1]; 5 hours after application): 2 (2×) and 3
- % PE ([1]; 5 hours after application): 93.10% and 88.89% and 86.96%
- Total % PE ([1]; 5 hours after application): 90.00%
- No. probing on treated arm ([1]; 6 hours after application): 10 and 6 and 7
- % PE ([1]; 6 hours after application): 41.18% and 57.14% and 65.00%
- Total % PE ([1]; 6 hours after application): 54.90%
- No. probing on treated arm ([1]; 7 hours after application): 7 and 6 and 9
- % PE ([1]; 7 hours after application): 36.36% and 50.00% (2×)
- Total % PE ([1]; 7 hours after application): 46.34%
- time after application for which 100% protection was provided ([1]; arm-in-cage, hourly intervals): 1 h
- time for which over 50% protection was provided ([1]; arm-in-cage, hourly intervals): 6 h

SMILES: CCN(CC)C(=O)c1cccc(C)c1 [DEET]
- repellency ([2]; 6 hour time period): 87.1%
- repellency, average for all five time periods ([2]; average of five post-treatment time intervals): 86.52%
- repellency ([2]; initial start time of zero, 90-second biting counts, 26.7 microliters on 12 square centimeter cloth): 91.9%
- biting activity compared with control [3]: no significance difference
